Results as given in patent US12371454B2, “Cyclic peptide compound having Kras inhibitory action” (priority 2019, dated 2025).
Positions of bridges follow the written chain, without caps; N, C: chain ends. Non-standard residues stand in square brackets, D forms with d. Residues, ends and D or L forms follow the SMILES beside them. *: point of attachment. hPhe(3-Cl-4-CF3) = N[C@@H](CCc1ccc(C(F)(F)F)c(Cl)c1)C(=O)O; NMeDab(N,N-(CH2CF2CH2)) = CN[C@@H](CCN1CC(F)(F)C1)C(=O)O; hPhe(3-F,4-CF3) = N[C@@H](CCc1ccc(C(F)(F)F)c(F)c1)C(=O)O; hPhe(3,4-Cl2) = N[C@@H](CCc1ccc(Cl)c(Cl)c1)C(=O)O; NMePhe(4-Me) = CN[C@@H](Cc1ccc(C)cc1)C(=O)O; Phe(4-Cl) = N[C@@H](Cc1ccc(Cl)cc1)C(=O)O; Phe(3-I) = N[C@@H](Cc1cccc(I)c1)C(=O)O; NMeAla(cPr) = CN[C@@H](CC1CC1)C(=O)O; Phe(2-Me) = Cc1ccccc1C[C@H](N)C(=O)O; Gly(cPent) = N[C@H](C(=O)O)C1CCCC1; NMeCha = CN[C@@H](CC1CCCCC1)C(=O)O; Gly(N-(CH2)2OEt) = CCOCCNCC(=O)O; NMeD = CN[C@@H](CC(=O)O)C(=O)O; NMeL = CN[C@@H](CC(C)C)C(=O)O; NMeV = CN[C@H](C(=O)O)C(C)C; d(β3hA) = C[C@@H](N)CC(=O)O; Pip = O=C(O)[C@@H]1CCCCN1; NMeA = CN[C@@H](C)C(=O)O; NMeAib = CNC(C)(C)C(=O)O; Piperidide = C1CCN(*)CC1; Pyrrolidide = C1CCN(*)C1; Ac5c = NC1(C(=O)O)CCCC1; Aze = O=C(O)[C@@H]1CCN1; Sar = CNCC(=O)O

Biological target: T1, Kras and SOS1 (biotin-tagged human Kras loaded with GDP, His-tagged human SOS1) (Homo sapiens, UniProt P01116, G12D)
T1 construct: made in house; host or cells: E. coli (stated for Kras only)
Assay: Protein-protein interaction inhibition between Kras and SOS1 (KrasGl2D-SOS PPI) using AlphaScreen
Format: binding
Details: AlphaScreen; biotin-tagged human Kras loaded with GDP, His-tagged human SOS1; read-out: KRAS G12D-SOS PPI IC50
In short: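 AlphaScreen format: Ni donor beads capture His-SOS1, streptavidin acceptor beads capture biotinylated Kras (E. coli-expressed, GDP-loaded post-purification). Excite 680 nm, read 520-620 nm.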

T1 sequence (P01116 1-188 isoform P01116-2 G12D): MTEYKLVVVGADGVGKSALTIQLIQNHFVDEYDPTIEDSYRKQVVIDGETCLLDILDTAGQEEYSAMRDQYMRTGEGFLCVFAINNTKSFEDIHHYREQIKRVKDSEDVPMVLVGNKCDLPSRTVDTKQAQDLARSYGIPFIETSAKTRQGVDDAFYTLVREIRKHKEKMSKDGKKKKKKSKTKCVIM

## CC[C@H](C)[C@@H]1NC(=O)[C@H](CC(C)C)N(C)C(=O)C[C@@H](C(=O)N2CCCC2)N(C)C(=O)[C@H](CC(C)C)NC(=O)C(C)(C)N(C)C(=O)[C@H](CC(C)C)NC(=O)[C@H](CCc2ccc(C(F)(F)F)c(F)c2)NC(=O)CN(C)C(=O)[C@H](CC2CCCCC2)N(C)C(=O)CN(C)C(=O)CN(C)C1=O [Compound 312] ([NMeL]I[Sar][Sar][NMeCha][Sar][hPhe(3-F,4-CF3)]L[NMeAib]L[NMeD]-Pyrrolidide; lactam N-11)
  IC50: 1 nM

## CC[C@H](C)[C@@H]1NC(=O)[C@H](CC(C)C)N(C)C(=O)C[C@@H](C(=O)N2CCCCC2)N(C)C(=O)[C@H](CC(C)C)NC(=O)C(C)(C)N(C)C(=O)[C@H](Cc2ccc(OC)cc2)NC(=O)[C@H](Cc2cccc(I)c2)NC(=O)CN(C)C(=O)[C@H](CC2CCCCC2)N(C)C(=O)CN(C)C(=O)CN(C)C1=O [Compound 320] ([NMeL]I[Sar][Sar][NMeCha][Sar][Phe(3-I)]Y(Me)[NMeAib]L[NMeD]-Piperidide; lactam N-11)
  IC50: 9.9 nM

## CC[C@H](C)[C@@H]1NC(=O)[C@H](CC(C)C)N(C)C(=O)C[C@@H](C(=O)N2CCCCC2)N(C)C(=O)[C@H](C(C)C)N(C)C(=O)C2(CCCC2)NC(=O)[C@@H]2CCCN2C(=O)[C@H](CCc2ccc(Cl)c(Cl)c2)NC(=O)CN(C)C(=O)[C@H](CC2CCCCC2)N(C)C(=O)[C@@H]2CCCCN2C(=O)CN(C)C1=O [Compound 324] ([NMeL]I[Sar][Pip][NMeCha][Sar][hPhe(3,4-Cl2)]P[Ac5c][NMeV][NMeD]-Piperidide; lactam N-11)
  IC50: 380 nM

## CC[C@H](C)[C@@H]1NC(=O)[C@H](CC(C)C)N(C)C(=O)C[C@@H](C(=O)N2CCCCC2)N(C)C(=O)[C@H](C(C)C)N(C)C(=O)C2(CCCC2)NC(=O)[C@@H]2CCCN2C(=O)[C@H](CCc2ccc(C(F)(F)F)c(Cl)c2)NC(=O)CN(C)C(=O)[C@H](CC2CC2)N(C)C(=O)CN(C)C(=O)CN(C)C1=O [Compound 325] ([NMeL]I[Sar][Sar][NMeAla(cPr)][Sar][hPhe(3-Cl-4-CF3)]P[Ac5c][NMeV][NMeD]-Piperidide; lactam N-11)
  IC50: 14 nM

## CCOCCN1CC(=O)N(C)CC(=O)N(C)[C@@H](CC2CCCCC2)C(=O)N(C)CC(=O)N[C@@H](CCc2ccc(C(F)(F)F)c(Cl)c2)C(=O)N2CCC[C@H]2C(=O)NC2(CCCC2)C(=O)N(C)[C@@H](C(C)C)C(=O)N[C@H](C)CC(=O)N(C)[C@@H](CC(C)C)C(=O)N[C@@H]([C@@H](C)CC)C1=O [Compound 329] (cyclo([Ac5c][NMeV][d(β3hA)][NMeL]I[Gly(N-(CH2)2OEt)][Sar][NMeCha][Sar][hPhe(3-Cl-4-CF3)]P))
  IC50: 40 nM

## CC[C@H](C)[C@@H]1NC(=O)[C@H](CC(C)C)N(C)C(=O)C[C@@H](C(=O)N2CCCCC2)N(C)C(=O)[C@H](CC(C)C)NC(=O)C(C)(C)N(C)C(=O)[C@H](Cc2ccc(Cl)cc2)NC(=O)[C@H](Cc2cccc(I)c2)NC(=O)CN(C)C(=O)[C@H](CC2CCCCC2)N(C)C(=O)CN(C)C(=O)CN(C)C1=O [Compound 330] ([NMeL]I[Sar][Sar][NMeCha][Sar][Phe(3-I)][Phe(4-Cl)][NMeAib]L[NMeD]-Piperidide; lactam N-11)
  IC50: 80 nM

## CC[C@H](C)[C@@H]1NC(=O)[C@H](C)N(C)C(=O)C[C@@H](C(=O)N2CCCCC2)N(C)C(=O)[C@H](C(C)C)N(C)C(=O)[C@H](CC(C)C)NC(=O)[C@H](CCN2CC(F)(F)C2)N(C)C(=O)[C@H](CCc2ccc(C(F)(F)F)c(Cl)c2)NC(=O)CN(C)C(=O)[C@H](CC2CCCCC2)N(C)C(=O)CN(C)C(=O)CN(C)C1=O [Compound 331] ([NMeA]I[Sar][Sar][NMeCha][Sar][hPhe(3-Cl-4-CF3)][NMeDab(N,N-(CH2CF2CH2))]L[NMeV][NMeD]-Piperidide; lactam N-11)
  IC50: 30 nM

## CC(C)C[C@H]1C(=O)N[C@@H](C2CCCC2)C(=O)N(C)CC(=O)N(C)CC(=O)N(C)[C@@H](CC2CCCCC2)C(=O)N(C)CC(=O)N[C@@H](CCc2ccc(C(F)(F)F)c(Cl)c2)C(=O)N2CCC[C@H]2C(=O)NC2(CCCC2)C(=O)N(C)[C@@H](C(C)C)C(=O)N[C@H](C)CC(=O)N1C [Compound 333] (cyclo([Ac5c][NMeV][d(β3hA)][NMeL][Gly(cPent)][Sar][Sar][NMeCha][Sar][hPhe(3-Cl-4-CF3)]P))
  IC50: 110 nM

## CC[C@H](C)[C@@H]1NC(=O)[C@H](CC(C)C)N(C)C(=O)C[C@@H](C(=O)N2CCCCC2)N(C)C(=O)[C@H](CC(C)C)NC(=O)C(C)(C)N(C)C(=O)[C@H](Cc2ccccc2C)NC(=O)[C@H](Cc2cccc(I)c2)NC(=O)CN(C)C(=O)[C@H](Cc2ccc(C)cc2)N(C)C(=O)[C@@H]2CCN2C(=O)CN(C)C1=O [Compound 335] ([NMeL]I[Sar][Aze][NMePhe(4-Me)][Sar][Phe(3-I)][Phe(2-Me)][NMeAib]L[NMeD]-Piperidide; lactam N-11)
  IC50: 67 nM
